Data set [1] has as its system RAW264.7. Kind of data set: Antiinflammatory activity in mouse RAW264.7 cells assessed as inhibition of LPS-induced nitric oxide production at 12.5 uM after 24 hrs by Griess assay relative to control. The class given is functional. The conditions noted are these: RAW264.7, 24 h.
Data set [2] concerns RAW264.7. In words: Antiinflammatory activity in mouse RAW264.7 cells assessed as inhibition of LPS-induced nitric oxide production at 3.1 uM after 24 hrs by Griess assay relative to control. The class given is functional. The conditions noted are these: RAW264.7, 24 h. In general terms: Griess reagent forms a coloured azo dye with nitrite.
Data set [3] deals with RAW264.7. In words: Antiinflammatory activity in mouse RAW264.7 cells assessed as inhibition of LPS-induced nitric oxide production at 6.3 uM after 24 hrs by Griess assay relative to control. The class given is functional. The conditions noted are these: RAW264.7, 24 h.
Data set [4] concerns RAW264.7. Kind of data set: Cytotoxicity against mouse RAW264.7 cells assessed as cell viability after 16 hrs by MTT assay. The data set is classed as cell-based. The conditions noted are these: raw264.7, 16 h. (Formazan colour is commonly taken as a measure of viable cells.)
For data set [5], the system named is RAW264.7. In words: Antiinflammatory activity in mouse RAW264.7 cells assessed as inhibition of LPS-induced nitric oxide production at 25 uM after 24 hrs by Griess assay relative to control. The class given is functional. The conditions noted are these: RAW264.7, 24 h.
Data set [6] deals with RAW264.7. Kind of data set: Antiinflammatory activity in mouse RAW264.7 cells assessed as inhibition of LPS-induced nitric oxide production after 24 hrs by Griess assay. The class given is functional, cell-based. The conditions noted are these: RAW264.7, 24 h.
Data set [7] concerns RAW264.7. Kind of data set: Antiinflammatory activity in mouse RAW264.7 cells assessed as inhibition of LPS-induced nitric oxide production at 50 uM after 24 hrs by Griess assay relative to control. The class given is functional. The conditions noted are these: RAW264.7, 24 h.

As to `CC(C)(O)[C@H]1OC[C@@H]([C@H]2CC[C@@]3(C)[C@@H]4CC[C@H]5C(C)(C)C(=O)CC[C@@]56C[C@@]46CC[C@]23C)C[C@@H]1O`, the inhibition at 12.5 µM with RAW264.7 [1] came to 23.2%. Besides, the inhibition at 3.1 µM in the data set with RAW264.7 [2] worked out at 12.5%. Further, the inhibition at 6.3 µM with RAW264.7 [3] came out at 18.5%. In addition, in the data set on RAW264.7 [4], the Activity result is listed as “Non-toxic”. Also, the inhibition at 25 µM with RAW264.7 [5] was 49%. Further, in the data set on RAW264.7 [6], the concentration for half-maximal inhibition (IC50) was determined as 25.5 µM. For the same compound, the inhibition at 50 µM in the data set with RAW264.7 [7] was 76.2%.

As to `CC1(C)OC[C@@H]([C@H]2CC[C@@]3(C)[C@@H]4CC[C@H]5C(C)(C)C(=O)CC[C@@]56C[C@@]46CC[C@]23C)C[C@@H](O)[C@@H]1O`, the inhibition at 12.5 µM with RAW264.7 [1] came out at 13.5%. For the same compound, the inhibition at 3.1 µM in the data set on RAW264.7 [2] is 11.3%. Also, the inhibition at 6.3 µM in the data set with RAW264.7 [3] came out at 4.5%. Further, the Activity entry in the data set with RAW264.7 [4] is recorded as “Non-toxic”. The inhibition at 25 µM in the data set on RAW264.7 [5] is 28.3%. For the same compound, the IC50 in the data set on RAW264.7 [6] amounted to 41.5 µM. The inhibition at 50 µM in the data set on RAW264.7 [7] is 58.9%.

Consider `C[C@H](C[C@@H](O)[C@H](O)C(C)(C)O)[C@H]1CC[C@@]2(C)[C@@H]3CC[C@H]4C(C)(C)C(=O)CC[C@@]45C[C@@]35CC[C@]12C`, for which the inhibition at 12.5 µM with RAW264.7 [1] turned out to be 23.8%. Besides, the inhibition at 3.1 µM in the data set with RAW264.7 [2] is 12.8%. In the data set on RAW264.7 [3], the inhibition at 6.3 µM stood at 17.9%. Further, the Activity result in the data set with RAW264.7 [4] is “Non-toxic”. In the data set with RAW264.7 [5], the inhibition at 25 µM came to 48.5%. Further, in the data set on RAW264.7 [6], the 50% inhibitory concentration (IC50) was determined as 27.4 µM. The inhibition at 50 µM in the data set on RAW264.7 [7] amounted to 79.1%.

With `C=C[C@@]1(C)CC(=O)[C@H]2[C@@H](CC[C@H]3C(C)(C)[C@@H](O)CC[C@]23C)C1`, in the data set with RAW264.7 [1], the inhibition at 12.5 µM worked out at 41.5%. Moreover, in the data set with RAW264.7 [2], the inhibition at 3.1 µM turned out to be 19.8%. For the same compound, in the data set on RAW264.7 [3], the inhibition at 6.3 µM stood at 25.6%. The Activity entry with RAW264.7 [4] is “Non-toxic”. Further, in the data set on RAW264.7 [5], the inhibition at 25 µM came out at 63.8%. In addition, the IC50 in the data set on RAW264.7 [6] came out at 14.5 µM. Also, in the data set with RAW264.7 [7], the inhibition at 50 µM was 92.4%.

On to `COC(=O)/C=C(\C)CC[C@@]1(C)[C@H](C)CC[C@@]2(C)C(C)=CC(=O)C[C@H]12`, for which, in the data set on RAW264.7 [1], the inhibition at 12.5 µM amounted to 24.8%. In the data set on RAW264.7 [2], the inhibition at 3.1 µM came out at 19.4%. Further, the inhibition at 6.3 µM in the data set with RAW264.7 [3] is 19.9%. In the data set on RAW264.7 [4], the Activity entry was “Non-toxic”. In addition, the inhibition at 25 µM in the data set with RAW264.7 [5] was 35.3%. For the same compound, in the data set with RAW264.7 [6], the 50% inhibitory concentration (IC50) was found to be 45.2 µM. Besides, in the data set with RAW264.7 [7], the inhibition at 50 µM amounted to 56.6%.

Take `COc1ccc2c(c1)c(CC(=O)O)c(C)n2C(=O)c1ccc(Cl)cc1` [INDOMETHACIN]: the inhibition at 12.5 µM with RAW264.7 [1] was found to be 38.5%. In the data set with RAW264.7 [2], the inhibition at 3.1 µM turned out to be 21.5%. In the data set with RAW264.7 [3], the inhibition at 6.3 µM was 24.5%. Besides, in the data set on RAW264.7 [5], the inhibition at 25 µM stood at 44.3%. For the same compound, the inhibition at 50 µM in the data set with RAW264.7 [7] was 57.9%.

A word on the inhibition: it is the drop in the measured response relative to a control, in per cent. The IC50 is the midpoint of a concentration-inhibition curve.

(Values after ChEMBL document CHEMBL3580557, “Anti-inflammatory Terpenoids from the Leaves and Twigs of Dysoxylum gotadhora” (J Nat Prod, 2015).)
